According to PubChem BioAssay (NCI):
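A five-concentration, 48-hour dose response in 96-well plates underlies each endpoint, interpolated linearly between surrounding concentrations. Definition used: TGI = concentration required for complete inhibition of growth.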

Tests used:
Assay in all cases: NCI tumour cell line growth inhibition, 48 h
786-0 renal = test system: 786-0 renal
DU-145 prostate = test system: DU-145 prostate
HCC-2998 colon = test system: HCC-2998 colon
HL-60(TB) leukemia = test system: HL-60(TB) leukemia
K-562 leukemia = test system: K-562 leukemia
LOX IMVI melanoma = test system: LOX IMVI melanoma
MCF7 breast = test system: MCF7 breast
MOLT-4 leukemia = test system: MOLT-4 leukemia
NCI-H226 lung = test system: NCI-H226 lung
NCI-H522 lung = test system: NCI-H522 lung
OVCAR-5 ovarian = test system: OVCAR-5 ovarian
OVCAR-8 ovarian = test system: OVCAR-8 ovarian
SF-295 CNS = test system: SF-295 CNS
SK-MEL-2 melanoma = test system: SK-MEL-2 melanoma
SK-OV-3 ovarian = test system: SK-OV-3 ovarian
SNB-19 CNS = test system: SNB-19 CNS
SR leukemia = test system: SR leukemia
T-47D breast = test system: T-47D breast
TK-10 renal = test system: TK-10 renal

SMILES | TGI (786-0 renal) | TGI (DU-145 prostate) | TGI (HCC-2998 colon) | TGI (HL-60(TB) leukemia) | TGI (K-562 leukemia) | TGI (LOX IMVI melanoma) | TGI (MCF7 breast) | TGI (MOLT-4 leukemia) | TGI (NCI-H226 lung) | TGI (NCI-H522 lung) | TGI (OVCAR-5 ovarian) | TGI (OVCAR-8 ovarian) | TGI (SF-295 CNS) | TGI (SK-MEL-2 melanoma) | TGI (SK-OV-3 ovarian) | TGI (SNB-19 CNS) | TGI (SR leukemia) | TGI (T-47D breast) | TGI (TK-10 renal)
CC(Oc1ccccc1Cl)C(=O)NN1C(=O)CC(=O)NC1=S (stereo not given) | > 100 µM | > 100 µM | > 100 µM | > 100 µM | > 100 µM | > 100 µM | > 100 µM | > 100 µM | > 100 µM | > 100 µM | > 100 µM | > 100 µM | > 100 µM | > 100 µM | > 100 µM | > 100 µM | > 100 µM | > 100 µM | > 100 µM
Clc1ccc(C(Cc2cccc(Cl)c2)c2c(Cl)nc(N3CCNCC3)nc2Cl)cc1 (stereo not given) | 27.5 µM | 33.9 µM | 28.4 µM | 23.1 µM | 26.5 µM | 25.5 µM | 24.6 µM | 24.6 µM | > 100 µM | 28 µM | 25 µM | 38.4 µM | 31 µM | 40.9 µM | 27.1 µM | 30.5 µM | 17.5 µM | 31 µM | 30.4 µM
CCOC(=O)Cn1c(=O)c2nc(SC)sc2n(-c2ccccc2)c1=S | 30.9 µM | > 100 µM | > 100 µM | 59.4 µM | > 100 µM | > 100 µM | > 100 µM | > 100 µM | 36.6 µM | > 100 µM | > 100 µM | 95.8 µM | > 100 µM | 63.1 µM | 60.7 µM | 30.6 µM | > 100 µM | > 100 µM | 60.1 µM
C=CCN1C[C@H](C)N([C@@H](c2ccc(C(=O)N3CCCCC3)cc2)c2cccc(OC)c2)C[C@H]1C | > 100 µM | > 100 µM | 99.5 µM | 21.5 µM | 60.8 µM | > 100 µM | > 100 µM | > 100 µM | > 100 µM | 55 µM | > 100 µM | > 100 µM | > 100 µM | 60.3 µM | > 100 µM | > 100 µM | 35.4 µM | 76 µM | > 100 µM
OC[P+](CO)(CO)C12CC3CC(CC(C3)C1)C2 | > 26 µM | > 100 µM | > 100 µM | 35.4 µM | > 100 µM | > 29.8 µM | > 100 µM | > 80.9 µM | > 100 µM | > 100 µM | > 100 µM | > 100 µM | > 100 µM | > 100 µM | > 100 µM | > 100 µM | > 82 µM | > 100 µM | > 100 µM
